Measurements: patent publication US20130018193A1, “DEUTERATED PIRFENIDONE” (CONCERT Pharmaceuticals Inc., priority 2007, published 2013)

Legend:
[1] = Pharmacokinetics of Compound 106 after intravenous and oral dosing in rats; type: in vivo, Male Sprague-Dawley rats; settings: for half-life / AUC(0-inf): male, Sprague-Dawley, rat, plasma; for half-life: 8 mg/kg co-dosed with pirfenidone; for AUC(0-inf): 8 mg/kg co-dosed
Experimental: Male Sprague-Dawley rats (3 for each route of administration) were administered a combination of 8 mg/kg of Compound 106 and 8 mg/kg of pirfenidone in 10% DMI (dimethyl isosorbide), 15% ethanol, 35% PG in distilled water by either oral or intravenous dosing. Blood samples from the dosed rats were collected prior to dosing and at 15, 30, 45, 60, 75, 90, 120, 240, and 360 minutes post-dosing. Plasma was isolated and prepared for analysis by mixing 0.1 ml of plasma in an Eppendorf tube with 20 μL methanol and 500 μL of quetiapine (50 ng/ml as an internal standard), vortexing for 1 minute and then centrifuging at 15,000 rpm for 5 minutes to remove any cellular debris. Plasma samples were analyzed by LC-MS/MS.
LC was performed using an Agilent (Agilent Technologies Inc. USA) liquid chromatograph equipped with an isocratic pump (1100 series), an autosampler (1100 series) and a degasser (1100 series). Plasma samples (2 μL) were run at 25° C. on a Phenomenex Gemini, C18, 5 μm, (50 mm×2.0 mm) column using 0.1% formic acid:methanol (30:70) as the mobile phase with an elution rate of 300 μL/min.
Mass spectrometric analysis was performed on plasma samples (2 μL) prepared as set forth above using an API3000 (triple-quadrupole) instrument from AB Inc (Canada) with an ESI interface. The data acquisition and control system were created using Analyst 1.4 software from ABI Inc.

[2] = Pharmacokinetics of Compounds 106 and 108 after intravenous and oral dosing in chimpanzees; type: in vivo; settings: chimps; for AUC(0-inf) / clearance / half-life / Cmax: both sexes, plasma, 100 mg each co-dosed; for half-life: 30 minute infusion
Experimental: Chimpanzees (one male and one female for each route of administration) were administered a combination of 100 mg of Compound 106, 100 mg of Compound 108 and 100 mg of pirfenidone in 10% DMI (dimethyl isosorbide), 15% ethanol, 35% PG in distilled water (total volume 150 ml) by either oral or intravenous dosing. Intravenous dosing was performed by infusion over a 30 minute period. Blood samples from the orally dosed chimps were collected just prior to dosing and at 15, 30, 60, 90, 120, 240, 360, 480, 600, 720 and 1440 minutes post-dosing. Blood samples (4.5 ml) from the intravenously dosed chimps were collected just prior to infusion, at 15 and 29.5 minutes after the start of infusion, and then at 6, 15, 30, 45, 60, 120, 240, 360, 480, 600, 720 and 1440 minutes post-infusion. Plasma was isolated and prepared for analysis by mixing 0.1 ml of plasma with 300 μL of indiplon in (50 ng/ml in acetonitrile/water; 90/10; v/v) as an internal standard, vortexing and then centrifuging to remove any precipitated protein.
Plasma samples (10 μl) were injected to a Zorbax SB-C8 (Rapid Resolution) column (2.1×30 mm, 3.5 μm). The initial mobile phase condition was 100% A (water with 0.1% formic acid) and 0% B (acetonitrile with 0.1% formic acid) with a flow rate at 0.75 mL/min. Mobile phase B was allowed to reach 100% in 0.75 minutes and held for 1.0 minute before ramping back to 0% in another 0.1 minute. The overall run time was 3 minutes. The precursor/product ion pairs were set at m/z 186/92, m/z 191/97, m/z 189/95 and m/z 377/293 for detecting pirfenidone, Compound 106, Compound 108 and indiplon, respectively. Plasma concentration data for each compound in each animal was individually fitted to a 2-compartment model using WinNonLin version 5.2 (PK Model #9) with weighting of 1/y.

[3] = Pharmacokinetics of Compound 108 and 109 after intravenous and oral dosing in rats; type: in vivo, Male Sprague-Dawley rats; settings: 8 mg/kg co-dosed with 8 mg/kg pirfenidone; for % Change compared to Pirfenidone, AUC0-∞ / % Change compared to Pirfenidone, Clearance / % Change compared to Pirfenidone, Half-life: IV dosing; for % Change compared to Pirfenidone, Cmax: oral dosing

Row | Compound | increase in AUC as compared to pirfenidone ([1]; intravenous administration) [%] | increase in half-life as compared to pirfenidone ([1]; intravenous administration) [%] | half-life ([1]; IV dosing) [h] | AUC(0-inf) ([1]; IV dosing) [ng·h/mL] | AUC(0-inf) ([1]; oral dosing) [ng·h/mL] | increase in AUC as compared to pirfenidone ([1]; oral dosing) [%] | AUC(0-inf) ([2]; IV dosing (Avg)) [ng·h/mL] | clearance ([2]; IV dosing (Avg)) [mL/min/kg] | half-life ([2]; IV dosing (Avg)) [h] | AUC(0-inf) ([2]; oral dosing (Avg)) [ng·h/mL] | Cmax ([2]; oral dosing (Avg)) [ng/mL] | increase in AUC as compared to pirfenidone ([2]; intravenous administration) [%] | increase in half-life as compared to pirfenidone ([2]; intravenous administration) | increase in AUC as compared to pirfenidone ([2]; oral dosing) | increase in Cmax as compared to pirfenidone ([2]; oral dosing) | % Change compared to Pirfenidone, AUC0-∞ [3] | % Change compared to Pirfenidone, Clearance [3] [%] | % Change compared to Pirfenidone, Half-life [3] | % Change compared to Pirfenidone, Cmax [3]
1 | [2H]c1cc(C([2H])([2H])[2H])c([2H])n(-c2ccccc2)c1=O [Compound 106, 3,6-Dideutero-5-(methyl-d3)-1-phenylpyridin-2(1H)-one] | 72 | 62 | 1.2 | 20100 | 13800 | 75 | 6900 | 4.37 | 1.4 | 1260 | 340 | ~50 | greater than 10% | greater than 50% | greater than 50% |  |  |  | 
2 | [2H]C([2H])([2H])c1ccc(=O)n(-c2ccccc2)c1 [Compound 108, 5-(Methyl-d3)-1-phenylpyridin-2(1H)-one] |  |  |  |  |  |  | 7000 | 4.58 | 1.5 | 1350 | 360 | ~50 | greater than 20% | ~60% | ~60% | +42% | −29 | +37% | +31%
3 | [2H]c1c([2H])c([2H])c(-n2cc(C([2H])([2H])[2H])ccc2=O)c([2H])c1[2H] [Compound 109] |  |  |  |  |  |  |  |  |  |  |  |  |  |  |  | +29% | −23 | +41% | +19%
4 | Cc1ccc(=O)n(-c2ccccc2)c1 [Pirfenidone, 5-methyl-1-phenylpyridin-2(1H)-one] |  |  | 0.74 | 11600 | 7910 |  | 4800 | 6.57 | 1.2 | 830 | 230 |  |  |  |  |  |  |  | 
